Experimental data taken from patent publication US20130224223A1, “Compositions and Methods for Treating Neurological Disorders” (GEORGIA REGENTS UNIVERSITY, priority 2007, published 2013).

Molecular target: T1, ErbB4 (Rattus norvegicus, UniProt Q62956)
T1 construct: cerebral cortex was dissected out of Sprague-Dawley rat embryos (E18) and dissociated; endogenous in cells; host or cells: primary rat (Sprague-Dawley) embryonic cortical neurons, DIV14, GAD65-positive
Experiment: phospho-ErbB4 immunostaining in GAD65-positive cortical neurons
Assay type: cell-based
Conditions: pretreatment 10 min before 5 nM NRG1; AG1478/AG879 5 mM [sic]
Experimental: FIG. 4A is a bar graph showing quantitative analysis of phospho-ErbB4 (p-ErbB4) in GAD65-positive cortical neurons treated with ecto-ErbB4 for 10 min prior to the addition of NRG1 (5 nM, final concentration) for another 10 min. n=7, *p<0.05. FIG. 4B is a line graph of eIPSC amplitude (nA) versus time (min) for cortical slices treated with sequential addition of NRG1 (5 nM) and ecto-ErbB4 (1 μg/ml and 2 μg/ml) (all final concentrations). On the top are averaged traces before (a) and after (b) NRG1, and after different dosages of ecto-ErbB4 ([c] and [d], 1 and 2 μg/ml, respectively). […]
FIG. 5A is a bar graph of phospho-ErbB4 (p-ErbB4) in cortical neurons treated with 5 mM AG1478, an inhibitor of ErbB4, or AG879, an inhibitor of ErbB2, for 10 min prior to the addition of NRG1 (5 nM, final concentration). Neurons were fixed and stained with phospho-ErbB4 and GAD65 antibodies, and visualized with Alexa 594 and FITC-coupled secondary antibodies respectively, and quantified. […]

T1 sequence (Q62956 26-1308): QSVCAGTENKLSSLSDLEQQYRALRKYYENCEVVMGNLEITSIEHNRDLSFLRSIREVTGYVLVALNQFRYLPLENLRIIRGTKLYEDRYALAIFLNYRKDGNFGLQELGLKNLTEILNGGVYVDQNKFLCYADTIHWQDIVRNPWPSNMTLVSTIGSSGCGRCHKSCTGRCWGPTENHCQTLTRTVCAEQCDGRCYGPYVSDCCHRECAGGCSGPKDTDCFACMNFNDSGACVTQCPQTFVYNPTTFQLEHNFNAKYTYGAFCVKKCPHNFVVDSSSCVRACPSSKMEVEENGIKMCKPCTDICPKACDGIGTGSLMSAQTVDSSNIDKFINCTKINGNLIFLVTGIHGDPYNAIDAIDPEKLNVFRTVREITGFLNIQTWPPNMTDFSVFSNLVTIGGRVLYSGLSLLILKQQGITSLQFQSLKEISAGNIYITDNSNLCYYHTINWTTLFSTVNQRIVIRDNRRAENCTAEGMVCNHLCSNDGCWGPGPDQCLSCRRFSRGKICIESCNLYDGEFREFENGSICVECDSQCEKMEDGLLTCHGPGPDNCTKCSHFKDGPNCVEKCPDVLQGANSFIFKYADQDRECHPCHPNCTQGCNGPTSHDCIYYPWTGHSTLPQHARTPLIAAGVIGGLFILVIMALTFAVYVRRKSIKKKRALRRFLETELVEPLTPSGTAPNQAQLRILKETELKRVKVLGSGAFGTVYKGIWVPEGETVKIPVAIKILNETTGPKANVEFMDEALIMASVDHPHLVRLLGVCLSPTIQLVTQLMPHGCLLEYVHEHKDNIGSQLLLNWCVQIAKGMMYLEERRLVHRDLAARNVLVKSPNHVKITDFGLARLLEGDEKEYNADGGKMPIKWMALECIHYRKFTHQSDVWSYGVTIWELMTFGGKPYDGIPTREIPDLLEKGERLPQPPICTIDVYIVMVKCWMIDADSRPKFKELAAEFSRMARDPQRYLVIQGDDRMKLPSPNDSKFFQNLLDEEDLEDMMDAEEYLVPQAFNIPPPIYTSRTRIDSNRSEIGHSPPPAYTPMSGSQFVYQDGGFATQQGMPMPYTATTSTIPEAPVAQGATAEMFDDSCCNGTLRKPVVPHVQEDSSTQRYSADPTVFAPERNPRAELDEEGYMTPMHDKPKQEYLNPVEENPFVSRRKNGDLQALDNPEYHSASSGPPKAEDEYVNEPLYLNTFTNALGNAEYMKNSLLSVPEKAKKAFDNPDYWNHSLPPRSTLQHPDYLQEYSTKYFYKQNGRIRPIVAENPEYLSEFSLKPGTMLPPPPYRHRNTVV

NRG1 activation (tyrosine phosphorylation) of ErbB4: blocked
SMILES: COc1cc2ncnc(Nc3cccc(Cl)c3)c2cc1OC [AG1478]
